The results in this text go back to US10472341B2, “Bicyclic tetrahydrothiazepine derivatives useful for the treatment of neoplastic and/or infectious diseases” (APEIRON BIOLOGICS AG, priority 2015, dated 2019).

Where two headings read alike, the source gives them in different places.

In experiment [1] the test system is aCD3/aCD28-stimulated human CD4+-T-cells. Nature of the experiment: IL-2 production and activation markers in aCD3/aCD28 stimulated isolated human CD4+-T-cells. The experiment is classed as cell-based. To be noted: IL-2 production at 3 μM compound. The procedure, abridged: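 CD4+ T cells isolated from buffy-coat PBMCs by microbeads were plated in Xvivo medium (1.5*10^5 cells/well) and stimulated with anti-CD3/28 mAbs plus compound. IL-2 measured by ELISA in supernatants at 24 h or 48 h; CD25 and proliferation by flow cytometry, CD69 at 24 h. Activity classes based on IL-2 at 3 μM compound.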

For experiment [2], the system named is aCD3/aCD28-stimulated human PBMCs. Nature of the experiment: Cytokine production in aCD3/aCD28 stimulated human PBMCs. The experiment is classed as cell-based. To be noted: PBMC, 18 h. A digest of the protocol: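 Compound effects measured in buffy-coat PBMCs activated 18 h at 37° C by 1 μg/mL each of soluble anti-CD3 (OKT3) and anti-CD28 (28.2), 1e6 cells/mL. Cytokines in harvested supernatants read by MSD or HTRF.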

[3] abbreviates: enhancement of IFN-γ production, read-out: Activity Class IFN-γ.
[4] abbreviates: enhancement of IL-2 production, read-out: Activity Class IL-2.

Regarding `CC(C)(O)CNC(=O)c1ccc2c(c1)N(Cc1ccc(Cl)cc1)C(=O)[C@@H](N)CS2` [Example 48, (3R)-3-amino-5-[(4-chlorophenyl)methyl]-N-(2-hydroxy-2-methylpropyl)-4-oxo-2,3,4,5-tetrahydro-1,5-benzothiazepine-7-carboxamide], the “Activity Class CD4+” value in experiment [1] is “C (IL-2 production at 3 μM compound concentration between 2-fold increase as compared to mean IL-2 production of stimulated cells in the absence of compounds and <2 ng/mL)”. Further, the EC50 was 1.58 to 5.01 µM in experiment [2] (setting [3]) and over 5.01 µM in experiment [2] (setting [4]).

Take `CC(C)(O)CNC(=O)c1cc2c(cc1F)SC[C@H](N)C(=O)N2Cc1ccc(Cl)cc1` [Example 50, (3R)-3-amino-5-[(4-chlorophenyl)methyl]-8-fluoro-N-(2-hydroxy-2-methylpropyl)-4-oxo-2,3,4,5-tetrahydro-1,5-benzothiazepine-7-carboxamide]: the “Activity Class CD4+” value in experiment [1] was “C (IL-2 production at 3 μM compound concentration between 2-fold increase as compared to mean IL-2 production of stimulated cells in the absence of compounds and <2 ng/mL)”. The values for the EC50 in experiment [2] (setting [3]) and in experiment [2] (setting [4]) were 1.58 to 5.01 µM and over 5.01 µM, respectively.

As for `C[C@H]1Sc2ccc(C(=O)NCCCC(F)(F)F)cc2N(Cc2ccc(Cl)cc2)C(=O)[C@H]1N.Cl` [Example 51, (2R,3R)-3-amino-5-[(4-chlorophenyl)methyl]-2-methyl-4-oxo-N-(4,4,4-trifluorobutyl)-2,3,4,5-tetrahydro-1,5-benzothiazepine-7-carboxamide hydrochloride], the “Activity Class CD4+” value in experiment [1] was “C (IL-2 production at 3 μM compound concentration between 2-fold increase as compared to mean IL-2 production of stimulated cells in the absence of compounds and <2 ng/mL)”. Besides, the EC50 in experiment [2] (setting [3]) is under 1.58 µM; in experiment [2] (setting [4]), 1.58 to 5.01 µM.

Consider `CCCC(=O)NNC(=O)c1ccc2c(c1)N(Cc1ccc(Cl)cc1)C(=O)[C@@H](N)CS2.Cl` [Example 53, (3R)-3-amino-N′-butanoyl-5-[(4-chlorophenyl)methyl]-4-oxo-2,3,4,5-tetrahydro-1,5-benzothiazepine-7-carbohydrazide hydrochloride], for which the “Activity Class CD4+” value in experiment [1] is “C (IL-2 production at 3 μM compound concentration between 2-fold increase as compared to mean IL-2 production of stimulated cells in the absence of compounds and <2 ng/mL)”. Besides, the EC50 in experiment [2] (setting [3]) and in experiment [2] (setting [4]) was over 5.01 µM in each case.

As to `CCCCNC(=O)c1cc2c(cc1F)SC[C@H](N)C(=O)N2Cc1ccc(Cl)cc1F.Cl` [Example 54, (3R)-3-amino-N-butyl-5-[(4-chloro-2-fluorophenyl)methyl]-8-fluoro-4-oxo-2,3,4,5-tetrahydro-1,5-benzothiazepine-7-carboxamide hydrochloride], the “Activity Class CD4+” value in experiment [1] is reported as “B (IL-2 production at 3 μM compound concentration between 2-10 ng/mL)”. In addition, the EC50 in experiment [2] (setting [3]) and in experiment [2] (setting [4]) was 1.58 to 5.01 µM throughout.

Turning to `Cl.N[C@H]1CSc2cc(F)c(C(=O)NCC3CCOCC3)cc2N(Cc2ccc(Cl)cc2F)C1=O` [Example 55, (3R)-3-amino-5-[(4-chloro-2-fluorophenyl)methyl]-8-fluoro-N-(oxan-4-ylmethyl)-4-oxo-2,3,4,5-tetrahydro-1,5-benzothiazepine-7-carboxamide hydrochloride], the “Activity Class CD4+” value in experiment [1] is reported as “B (IL-2 production at 3 μM compound concentration between 2-10 ng/mL)”. In addition, the EC50 in experiment [2] (setting [3]) and in experiment [2] (setting [4]) was 1.58 to 5.01 µM in each case.

Turning to `Cl.N[C@H]1CSc2cc(F)c(C(=O)NCC3CCOCC3)cc2N(Cc2ccc(Cl)c(F)c2)C1=O` [Example 56, (3R)-3-amino-5-[(4-chloro-3-fluorophenyl)methyl]-8-fluoro-N-(oxan-4-ylmethyl)-4-oxo-2,3,4,5-tetrahydro-1,5-benzothiazepine-7-carboxamide hydrochloride], in experiment [1], the “Activity Class CD4+” value is “C (IL-2 production at 3 μM compound concentration between 2-fold increase as compared to mean IL-2 production of stimulated cells in the absence of compounds and <2 ng/mL)”. Besides, the EC50 in experiment [2] (setting [3]) is under 1.58 µM; in experiment [2] (setting [4]), 1.58 to 5.01 µM.

As to `CCCCNC(=O)c1cc2c(cc1F)SC[C@H](N)C(=O)N2Cc1ccc(Cl)c(F)c1` [Example 57, (3R)-3-amino-N-butyl-5-[(4-chloro-3-fluorophenyl)methyl]-8-fluoro-4-oxo-2,3,4,5-tetrahydro-1,5-benzothiazepine-7-carboxamide], the “Activity Class CD4+” value in experiment [1] was “C (IL-2 production at 3 μM compound concentration between 2-fold increase as compared to mean IL-2 production of stimulated cells in the absence of compounds and <2 ng/mL)”. Also, the EC50 is under 1.58 µM in experiment [2] (setting [3]) and 1.58 to 5.01 µM in experiment [2] (setting [4]).

In the case of `CCCONC(=O)c1cc2c(cc1F)SC[C@H](N)C(=O)N2Cc1ccc(Cl)cc1.Cl` [Example 58, (3R)-3-amino-5-[(4-chlorophenyl)methyl]-8-fluoro-4-oxo-N-propoxy-2,3,4,5-tetrahydro-1,5-benzothiazepine-7-carboxamide hydrochloride], the “Activity Class CD4+” value in experiment [1] is “C (IL-2 production at 3 μM compound concentration between 2-fold increase as compared to mean IL-2 production of stimulated cells in the absence of compounds and <2 ng/mL)”. Further, the EC50 in experiment [2] (setting [3]) and in experiment [2] (setting [4]) was over 5.01 µM throughout.

In the case of `CC(C)CONC(=O)c1cc2c(cc1F)SC[C@H](N)C(=O)N2Cc1ccc(Cl)cc1.Cl` [Example 59, (3R)-3-amino-5-[(4-chlorophenyl)methyl]-8-fluoro-N-(2-methylpropoxy)-4-oxo-2,3,4,5-tetrahydro-1,5-benzothiazepine-7-carboxamide hydrochloride], in experiment [1], the “Activity Class CD4+” value was “C (IL-2 production at 3 μM compound concentration between 2-fold increase as compared to mean IL-2 production of stimulated cells in the absence of compounds and <2 ng/mL)”. Besides, the EC50 in experiment [2] (setting [3]) and in experiment [2] (setting [4]) was 1.58 to 5.01 µM in each case.

In the case of `CC(C)CNNC(=O)c1cc2c(cc1F)SC[C@H](N)C(=O)N2Cc1ccc(Cl)cc1.Cl` [Example 60, (3R)-3-amino-5-[(4-chlorophenyl)methyl]-8-fluoro-N′-(2-methylpropyl)-4-oxo-2,3,4,5-tetrahydro-1,5-benzothiazepine-7-carbohydrazide hydrochloride], in experiment [1], the “Activity Class CD4+” value is “C (IL-2 production at 3 μM compound concentration between 2-fold increase as compared to mean IL-2 production of stimulated cells in the absence of compounds and <2 ng/mL)”. Further, the EC50 is under 1.58 µM in experiment [2] (setting [3]) and 1.58 to 5.01 µM in experiment [2] (setting [4]).

In the case of `CC(C)C(C)NC(=O)c1ccc2c(c1)N(Cc1ccc(Cl)cc1)C(=O)[C@@H](N)CS2.Cl` (stereo partly drawn) [Example 63, (3R)-3-amino-5-[(4-chlorophenyl)methyl]-N-(3-methylbutan-2-yl)-4-oxo-2,3,4,5-tetrahydro-1,5-benzothiazepine-7-carboxamide hydrochloride], the “Activity Class CD4+” value in experiment [1] is given as “B (IL-2 production at 3 μM compound concentration between 2-10 ng/mL)”. Moreover, the EC50 in experiment [2] (setting [3]) and in experiment [2] (setting [4]) was 1.58 to 5.01 µM in each case.

Turning to `C=CCCNC(=O)c1ccc2c(c1)N(Cc1ccc(Cl)cc1)C(=O)[C@@H](N)CS2.Cl` [Example 64, (3R)-3-amino-N-(but-3-en-1-yl)-5-[(4-chlorophenyl)methyl]-4-oxo-2,3,4,5-tetrahydro-1,5-benzothiazepine-7-carboxamide hydrochloride], the “Activity Class CD4+” value in experiment [1] was “C (IL-2 production at 3 μM compound concentration between 2-fold increase as compared to mean IL-2 production of stimulated cells in the absence of compounds and <2 ng/mL)”. Also, the EC50 in experiment [2] (setting [3]) was 1.58 to 5.01 µM; in experiment [2] (setting [4]), over 5.01 µM.

For the compound `CC(C)CNNC(=O)c1ccc2c(c1)N(Cc1ccc(Cl)cc1)C(=O)[C@@H](N)CS2.Cl` [Example 65, (3R)-3-amino-5-[(4-chlorophenyl)methyl]-N′-(2-methylpropyl)-4-oxo-2,3,4,5-tetrahydro-1,5-benzothiazepine-7-carbohydrazide hydrochloride], the “Activity Class CD4+” value in experiment [1] is “C (IL-2 production at 3 μM compound concentration between 2-fold increase as compared to mean IL-2 production of stimulated cells in the absence of compounds and <2 ng/mL)”. Besides, the EC50 in experiment [2] (setting [3]) and in experiment [2] (setting [4]) was 1.58 to 5.01 µM in each case.

With `CCCCNC(=O)c1ccc2c(c1)N(Cc1ccc(Cl)cc1)C(=O)[C@@H](N)C[S+]2[O-].Cl` (stereo partly drawn) [Example 66, (3R)-3-amino-N-butyl-5-[(4-chlorophenyl)methyl]-1,4-dioxo-2,3,4,5-tetrahydro-1λ^4,5-benzothiazepine-7-carboxamide hydrochloride], the “Activity Class CD4+” value in experiment [1] is “C (IL-2 production at 3 μM compound concentration between 2-fold increase as compared to mean IL-2 production of stimulated cells in the absence of compounds and <2 ng/mL)”. In addition, the results for the EC50 in experiment [2] (setting [3]) and in experiment [2] (setting [4]) were under 1.58 µM and 1.58 to 5.01 µM, respectively.

Turning to `Cl.N[C@H]1CS(=O)(=O)c2cc(F)c(C(=O)NOc3ccccc3)cc2N(Cc2ccc(OC(F)(F)F)cc2)C1=O` [Example 74, (3R)-3-amino-8-fluoro-1,1,4-trioxo-N-phenoxy-5-{[4-(trifluoromethoxy)phenyl]methyl}-2,3,4,5-tetrahydro-1λ^6,5-benzothiazepine-7-carboxamide hydrochloride], in experiment [1], the “Activity Class CD4+” value is “C (IL-2 production at 3 μM compound concentration between 2-fold increase as compared to mean IL-2 production of stimulated cells in the absence of compounds and <2 ng/mL)”. Further, the EC50 is 1.58 to 5.01 µM in experiment [2] (setting [3]) and over 5.01 µM in experiment [2] (setting [4]).

As to `CC(C)CONC(=O)c1cc2c(cc1F)S(=O)(=O)C[C@H](N)C(=O)N2Cc1ccc(Cl)cc1.Cl` [Example 75, (3R)-3-amino-5-[(4-chlorophenyl)methyl]-8-fluoro-N-(2-methylpropoxy)-1,1,4-trioxo-2,3,4,5-tetrahydro-1λ^6,5-benzothiazepine-7-carboxamide hydrochloride], the “Activity Class CD4+” value in experiment [1] is on record as “B (IL-2 production at 3 μM compound concentration between 2-10 ng/mL)”. For the same compound, the values for the EC50 in experiment [2] (setting [3]) and in experiment [2] (setting [4]) were 1.58 to 5.01 µM and over 5.01 µM, respectively.
